Source: patent publication US20040198800A1, “Lipoxygenase inhibitors as hypolipidemic and anti-hypertensive agents” (priority 2002, published 2004)

Columns and labels:
[1] = test system: high fructose fed (HFF) rats; assay: Example 2: effect of lipoxygenase inhibitors on serum metabolic components of HFF rats; assay type: in vivo, Sprague-Dawley rats; conditions: for Cholesterol, Day 15 / Cholesterol, Day 19: serum total cholesterol; for Cholesterol, Day 19 / Glucose, Day 19 / FFA, Day 19 / Insulin, Day 19 / TG, Day 19: Day 19 after 4 days BID oral gavage (NDGA 250 mg/kg, BW 755c 100 mg/kg); for Glucose, Day 19: 3 hours after last dose
Description: Male rats were initially divided into HFF or chow (control) groups and maintained for 14 days on the prescribed diet. […] On days 15-19 all groups were treated by oral gavage twice daily with either drug or vehicle. On days 15 and 19 serum was collected for analysis. On day 20, the groups were subdivided to receive either LPS or vehicle (saline). Post-LPS treatment, the animals were sacrificed and their livers were isolated for analysis.
Male Sprague-Dawley rats weighing approximately 180-200 g first maintained on a rat chow diet and then were divided into four groups, three of which were switched to a high-fructose diet (Harlan Teklad, Madison, Wis.) that provided 60% of total calories as fructose (Day 1). On day 15 of treatment, the rats were fasted for 4 hours and tail vein blood was collected for baseline measurements of serum TG, glucose, insulin and free fatty acids (FFA) as previously described (Gowri et al., Am. J. Hypertension, 12: 744-746 (1999)). […] The chow group (diet control) was treated with vehicle. During the treatment regimen the animals were maintained on high-fructose diet. […] On day 20, four animals in each group were injected (iv) with 0.5 mg/kg BW Salmonella enterifdis endotoxin (lipopolysaccharide, LPS) or normal saline under light anaesthesia. After 2 hours, serum was collected for corticosterone measurement, as described previously (Kraemer et al., Endocrinology, 143: 801-806 (2002)), and then the animals were sacrificed and tissues removed, snap-frozen in liquid nitrogen and stored at −80° C. until analyzed. The local committee on animal care approved all animal protocols.
Statistical analysis were performed by either paired or unpaired t-test using GraphPad Prism version 3.00 for Windows, GraphPad Software, San Diego Calif. USA. A difference between groups was considered significant if P was less than 0.05. Normalized Western Blot data were obtained as a ratio of the units measured for phosphorylated protein divided by the units measured for total protein. Statistical analyses were performed on the normalized data.

[2] = test system: high-fructose diet fed rats; assay: Example 1: in vivo efficacy of 5-LO inhibitors in diet-induced model of hypertriglyceridemia and hypertension (serum TG, FFA, insulin, glucose, body weight); design: species or system Sprague-Dawley rats; conditions: oral gavage twice a day for 5 days; for effect on serum triglycerides: NDGA 250 mg/kg (p=0.0004), BW 755c 100 mg/kg (p=0.0002), day 0 vs day 5, FIG. 1; for effect on serum insulin levels: NDGA 250 mg/kg (p=0.003); for effect on serum insulin levels / effect on increase in serum free fatty acids during treatment / effect on serum glucose: BW 755c 100 mg/kg; for effect on increase in serum free fatty acids during treatment / effect on serum glucose: NDGA 250 mg/kg
From the text: Male Sprague-Dawley rats weighting 175-200 g were used in these studies. […]. Rats were first maintained on a chow diet for ˜1 wk and then were divided into four groups (7 or 8 animals in each group). Three groups were switched to a high-fructose diet (Harlan Teklad, Madison, Wis.) that provided 60% of total calories as fructose. The fourth group was maintained on normal chow to serve as an overall control group. After 14 days on the high-fructose diet, the degree of hypertriglyceridemia was evaluated by determining the total plasma TG levels. On day 0 of treatment, tail vein blood was collected for baseline measurements of serum TG, glucose, insulin, and FFA. […] All animals were dosed two times a day for 5 days (days 1-5), delivered by oral gavage. On day 5 of treatment (approximately 3 hours after the oral dose) vein blood was collected for measurements of serum TG, glucose, insulin, and FFA. During the treatment period, rats were maintained on their prescribed diets. Body weights were measured on day 0 and day 5.
Serum samples were used to measure TG and glucose concentrations by enzymatic […] methods using Sigma Diagnostic kits (St. Louis, Mo.). Serum insulin concentrations were by RIA using a Linco Rat Insulin RIA kit (St. Charles, Mo.). FFA concentrations were measured using the nonesterified fatty acid (NEFA) C kit by the ACS-ACOD method following the instructions of the manufacturer.
Data was statistically analyzed using paired t-tests to determine significance.

[3] = background statement; cited from earlier work
diabetic rat model = conditions: Babu et al. 1997; cited from earlier work
in vivo animal models = conditions: Maya et al. 2000; Scribner et al. 2000; cited from earlier work
[4] = Day 15 = baseline before drug treatment, mean ± S.E., n = 7-8
[5] = serum, Day 15 = baseline before drug treatment, mean ± S.E., n = 7-8

## NC1=NN(c2cccc(C(F)(F)F)c2)CC1 [BW 755c, 4,5-dihydro-1-(3-(trifluoromethyl)phenyl)-1H-pyrazol-3-amine]
[1]; four days BID oral treatment
  effect on serum total cholesterol: Neither of these effects was observed
[1]; [4]
  Cholesterol, Day 15: 107.6 ± 3 mg/dL
[1]; mean ± S.E., n = 7-8
  Cholesterol, Day 19: 104.5 ± 2 mg/dL
[1]; serum, Day 15 = baseline before drug treatment, 4 h fasted, mean ± S.E., n = 7-8
  Glucose, Day 15: 119 ± 7 mg/dL
[1]; [5]
  FFA, Day 15: 554 ± 71 μEq/L
  Insulin, Day 15: 1.6 ± 0.3 ng/mL
  TG, Day 15: 296 ± 31 mg/dL
[1]; serum, mean ± S.E., n = 7-8
  Glucose, Day 19: 114 ± 7 mg/dL
  FFA, Day 19: 504 ± 42 μEq/L
  Insulin, Day 19: 1.7 ± 0.3 ng/mL
  TG, Day 19: 112 ± 20(^4) mg/dL
[2]
  effect on serum triglycerides: significantly reduced
  effect on serum insulin levels: no effect
  effect on increase in serum free fatty acids during treatment: ameliorated
  effect on serum glucose: no effect

## COc1cc(/C=C/C(=O)CC(=O)/C=C/c2ccc(O)c(OC)c2)ccc1O [Curcumin]
[3]
  bioavailability: poorly bioavailable
Diabetic rat model
  properties in in vivo diabetic rat model: hypolidemic properties

## C[C@H](Cc1ccc(O)c(O)c1)[C@@H](C)Cc1ccc(O)c(O)c1 [NDGA, nordihydroguaiaretic acid]
[3]
  bioavailability: poorly bioavailable
In vivo animal models
  properties in in vivo animal models: hypolipidemic and antihypertensive properties
[1]; four days BID oral treatment
  effect on fasting blood glucose: without significantly altering
  effect on fasting serum insulin: significantly decreased
  effect on serum total cholesterol: significantly reduced
[1]; [4]
  Cholesterol, Day 15: 118.6 ± 3 mg/dL
[1]; mean ± S.E., n = 7-8
  Cholesterol, Day 19: 98.3 ± 4(^7) mg/dL
[1]; [5]
  FFA, Day 15: 599 ± 51 μEq/L
  Insulin, Day 15: 2.3 ± 0.3 ng/mL
  TG, Day 15: 384 ± 48 mg/dL
[1]; serum, mean ± S.E., n = 7-8
  Glucose, Day 19: 122 ± 8 mg/dL
  FFA, Day 19: 611 ± 101 μEq/L
  Insulin, Day 19: 0.9 ± 0.1(′) ng/mL
  TG, Day 19: 97 ± 6 mg·s/dL
[2]
  effect on serum triglycerides: significantly reduced
  effect on serum insulin levels: significantly lowered
  effect on increase in serum free fatty acids during treatment: ameliorated
  effect on serum glucose: without increasing serum glucose
